Measurements reported in patent publication US20260285853A1, “COMPOUNDS AND METHODS FOR MODULATING SPLICING” (REMIX THERAPEUTICS INC., priority 2023, published 2026).
Where two headings read alike, the source gives them in different places.

Tests used:
Format in all cases: cell-based
HTT mRNA [1] = assay: Gene panel canonical junction qPCR assay, decrease in CJ mRNA, Table 3
Summary of the method: (§1)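 Cells: A673 or K562; 24 h compound exposure, 37 °C, 5% CO2; 11-pt 3-fold series from 10 uM final; DMSO ≤0.25%. Lysate → cDNA → qPCR with junction-spanning primers/probe for CJ transcript. ΔCt vs housekeeper, ΔΔCt vs DMSO, 2^(−ΔΔCt), % response, 4PL → IC50.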

MYB mRNA [2] = assay: as above
Summary of the method: as §1

HTT mRNA [3] = assay: Splicing RT-qPCR assay (THP), Table 2A
MYB mRNA [4] = assay: Splicing RT-qPCR assay (THP), Table 2A
[5] = tested on: SH-SY5Y (human neuroblastoma) cells; assay: Cell viability, Cell Titer Glo 2.0 assay; details: read-out: Viability SHSY5Y.3 GI50
Summary of the method: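 CellTiter-Glo 2.0 luminescence read-out after 72 h compound exposure (37 °C, 5% CO2); medium-only wells as blank. DMSO 0.1% final.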

[6] = decrease in canonical junction (CJ) mRNA, gene panel qPCR, Table 3
[7] = Table 2A (THP), AJ mRNA increase, read-out: HTT AJ (increase in alternative junction mRNA, AC50)
[8] = Table 2A (THP), CJ mRNA decrease, read-out: HTT CJ (decrease in canonical junction mRNA, IC50)
[9] = Table 2A (THP), AJ mRNA increase, read-out: MYB AJ (increase in alternative junction mRNA, AC50)
[10] = Table 2A (THP), CJ mRNA decrease, read-out: MYB CJ (decrease in canonical junction mRNA, IC50)
[11] = decrease in CJ mRNA levels, canonical junction qPCR, gene panel
[12] = Table 2A, THP, HTT alternative junction (AJ) mRNA, read-out: HTT AJ (AC50, increase in alternative junction mRNA)
[13] = Table 2A, THP, HTT canonical junction (CJ) mRNA, read-out: HTT CJ (IC50, decrease in canonical junction mRNA)
[14] = Table 2A, THP, MYB alternative junction (AJ) mRNA, read-out: MYB AJ (AC50, increase in alternative junction mRNA)
[15] = Table 2A, THP, MYB canonical junction (CJ) mRNA, read-out: MYB CJ (IC50, decrease in canonical junction mRNA)

SMILES | IC50 (HTT mRNA [1]; [6]) | IC50 (MYB mRNA [2]; [6]) | IC50 (HTT mRNA [3]; [8]) | IC50 (MYB mRNA [4]; [10]) | GI50 [5] | IC50 (HTT mRNA [1]; [11]) | IC50 (MYB mRNA [2]; [11]) | IC50 (HTT mRNA [3]; [13]) | IC50 (MYB mRNA [4]; [15]) | AC50 (HTT mRNA [3]; [7]) | AC50 (MYB mRNA [4]; [9]) | AC50 (HTT mRNA [3]; [12]) | AC50 (MYB mRNA [4]; [14])
Cc1cn2cc(NC(=O)c3ccc(N4CCC5NCC5C4)c4cn(C)nc34)nc2c(C)n1 (stereo not drawn) [Compound 530] | > 10000 nM | 1000 to 10000 nM | > 10000 nM | 1000 to 10000 nM | > 10000 nM | – | – | – | – | > 10000 nM | > 10000 nM | – | –
COc1cc2nn(C)cc2cc1NC(=O)c1ccc(N2CCC3(CCN3)CC2)c2cn(C)nc12 [Compound 540] | 1000 to 10000 nM | < 100 nM | 1000 to 10000 nM | < 100 nM | 1000 to 10000 nM | – | – | – | – | 1000 to 10000 nM | < 100 nM | – | –
Cn1cc2cc(NC(=O)c3c(O)cc(N4CCC(NC5CC5)CC4)c4cn(C)nc34)cc(CNS(C)(=O)=O)c2n1 [Compound 852] | – | – | – | – | 1000 to 10000 nM | > 10000 nM | 100 to 1000 nM | > 10000 nM | 100 to 1000 nM | – | – | 1000 to 10000 nM | 100 to 1000 nM
COc1cc2nn(C)cc2cc1NC(=O)c1c(F)cc(N2CCC(NC3CC3)CC2)c2cc(C)nn12 [Compound 624, 4-[4-(cyclopropylamino)-1-piperidyl]-6-fluoro-N-(6-methoxy-2-methyl-indazol-5-yl)-2-methyl-pyrazolo[1,5-a]pyridine-7-carboxamide] | – | – | – | – | > 10000 nM | > 10000 nM | > 10000 nM | > 10000 nM | > 10000 nM | – | – | > 10000 nM | > 10000 nM
CCNC1CCN(c2cc(F)c(C(=O)Nc3cn4cc(C)nc(CC)c4n3)c3nn(C)cc23)CC1 [Compound 362, 4-[4-(ethylamino)-1-piperidyl]-N-(8-ethyl-6-methyl-imidazo[1,2-a]pyrazin-2-yl)-6-fluoro-2-methyl-indazole-7-carboxamide] | > 10000 nM | 100 to 1000 nM | > 10000 nM | 100 to 1000 nM | 1000 to 10000 nM | – | – | – | – | > 10000 nM | < 100 nM | – | –
COc1cc2nn(C)cc2cc1NC(=O)c1ccc(OC2CCNCC2)c2cn(C)nc12 [Compound 566] | 100 to 1000 nM | 100 to 1000 nM | 100 to 1000 nM | 100 to 1000 nM | 1000 to 10000 nM | – | – | – | – | 1000 to 10000 nM | 100 to 1000 nM | – | –
CCNC1CCN(c2ccc(C(=O)Nc3cc(CC(=O)NC)c4nc(C)cn4c3)c3nn(C)cc23)CC1 [Compound 341, 4-(4-(ethylamino)piperidin-1-yl)-2-methyl-N-(2-methyl-8-(2-(methylamino)-2-oxoethyl)imidazo[1,2-a]-pyridin-6-yl)-2H-indazole-7-carboxamide bis(2,2,2-trifluoroacetate)] | 1000 to 10000 nM | > 10000 nM | 1000 to 10000 nM | > 10000 nM | > 10000 nM | – | – | – | – | > 10000 nM | 1000 to 10000 nM | – | –
Cc1cn2cc(NC(=O)c3ccc(N4CCC(NC5CC5)CC4)c4cn(C)nc34)nc2c(Cn2cccn2)n1 [Compound 773, 4-[4-(cyclopropylamino)-1-piperidyl]-2-methyl-N-[6-methyl-8-(pyrazol-1-ylmethyl)imidazo[1,2-a]pyrazin-2-yl]indazole-7-carboxamide] | – | – | – | – | 1000 to 10000 nM | 1000 to 10000 nM | 1000 to 10000 nM | 1000 to 10000 nM | 1000 to 10000 nM | – | – | 1000 to 10000 nM | 1000 to 10000 nM
CNCC1CCN(c2ccc(C(=O)Nc3cn4cc(C)nc(C)c4n3)c3nn(C)cc23)C1 (stereo not drawn) [Compound 527] | 100 to 1000 nM | 100 to 1000 nM | 100 to 1000 nM | 100 to 1000 nM | 100 to 1000 nM | – | – | – | – | 100 to 1000 nM | 100 to 1000 nM | – | –
Cc1cn2cc(NC(=O)c3ccc(N4CCC(N)CC4)c4cn(C)nc34)c(F)c2c(C)n1 [Compound 580, 4-(4-amino-1-piperidyl)-N-(8-fluoro-1,3-dimethyl-pyrrolo[1,2-a]-pyrazin-7-yl)-2-methyl-indazole-7-carboxamide] | > 10000 nM | 1000 to 10000 nM | > 10000 nM | 1000 to 10000 nM | 100 to 1000 nM | – | – | – | – | > 10000 nM | 1000 to 10000 nM | – | –
Cc1cn2cc(NC(=O)c3ccc(N4CCC(NC5CC5)CC4)c4cn(C)nc34)nc2c(CNC(N)=O)n1 [Compound 829] | – | – | – | – | > 10000 nM | > 10000 nM | > 10000 nM | > 10000 nM | > 10000 nM | – | – | > 10000 nM | > 10000 nM
COc1cc2nn(C)cc2cc1NC(=O)c1c(O)cc(N2CCC(NC3CC3)CC2)c2cn(C)nc12 [Compound 463, 4-[4-(cyclopropylamino)-1-piperidyl]-6-hydroxy-N-(6-methoxy-2-methyl-indazol-5-yl)-2-methyl-indazole-7-carboxamide] | 1000 to 10000 nM | < 100 nM | 1000 to 10000 nM | < 100 nM | 100 to 1000 nM | – | – | – | – | 1000 to 10000 nM | < 100 nM | – | –
Cc1nc(CNS(C)(=O)=O)cn2cc(NC(=O)c3c(F)cc(N4CCC(NC5CC5)CC4)c4cn(C)nc34)nc12 [Compound 416, 4-(4-(cyclopropylamino)-piper-idin-1-yl)-6-fluoro-2-meth-yl-N-(8-methyl-6-(methyl-sulfonamidomethyl)-imidazo[1,2-a]pyrazin-2-yl)-2H-indazole-7-carbox-amide 2,2,2-trifluoroacetate] | > 10000 nM | > 10000 nM | > 10000 nM | > 10000 nM | > 10000 nM | – | – | – | – | > 10000 nM | > 10000 nM | – | –
COc1nc2c(N3CCC(NC4CC4)CC3)ccc(C(=O)Nc3cc4cn(C)nc4cc3OC)c2o1 [Compound 679, 4-[4-(cyclopropylamino)-1-piperidyl]-2-methoxy-N-(6-methoxy-2-methyl-indazol-5-yl)-1,3-benzoxazole-7-carboxamide] | – | – | – | – | 1000 to 10000 nM | 1000 to 10000 nM | 100 to 1000 nM | 1000 to 10000 nM | 100 to 1000 nM | – | – | 1000 to 10000 nM | < 100 nM

More lines, main results first:

IC50 (HTT mRNA [1]; [6]) | IC50 (MYB mRNA [2]; [6]) | IC50 (HTT mRNA [3]; [8]) | IC50 (MYB mRNA [4]; [10]) | GI50 [5] | IC50 (HTT mRNA [1]; [11]) | IC50 (MYB mRNA [2]; [11]) | IC50 (HTT mRNA [3]; [13]) | IC50 (MYB mRNA [4]; [15]) | SMILES | AC50 (HTT mRNA [3]; [7]) | AC50 (MYB mRNA [4]; [9]) | AC50 (HTT mRNA [3]; [12]) | AC50 (MYB mRNA [4]; [14])
> 10000 nM | 1000 to 10000 nM | > 10000 nM | 1000 to 10000 nM | 100 to 1000 nM | – | – | – | – | COc1cc2nn(C)c(C)c2cc1NC(=O)c1c(F)cc(N2CCC(NC3CC3)CC2)c2cn(C)nc12 [Compound 418, 4-[4-(cyclopropylamino)-1-piperidyl]-6-fluoro-N-(6-methoxy-2,3-dimethyl-indazol-5-yl)-2-methyl-indazole-7-carboxamide] | > 10000 nM | 100 to 1000 nM | – | –
> 10000 nM | > 10000 nM | > 10000 nM | > 10000 nM | > 10000 nM | – | – | – | – | COc1cc2nn(C)cc2cc1C(=O)Nc1ccc(N2CCNCC2)c2cn(C)nc12 [Compound 489, 6-methoxy-2-methyl-N-(2-methyl-4-piperazin-1-yl-indazol-7-yl)-indazole-5-carboxamide] | > 10000 nM | > 10000 nM | – | –
– | – | – | – | > 10000 nM | > 10000 nM | > 10000 nM | > 10000 nM | > 10000 nM | Cn1cc2cc(NC(=O)c3ccc(N4CCC(NC5CC5)CC4)c4cn(C)nc34)cc(CNC3(C)COC3)c2n1 [Compound 834] | – | – | > 10000 nM | > 10000 nM
1000 to 10000 nM | < 100 nM | 1000 to 10000 nM | < 100 nM | 100 to 1000 nM | – | – | – | – | CCNC1CCN(c2ccc(C(=O)Nc3cc(Oc4ccc(C#N)cc4)c4nc(C)cn4c3)c3nn(C)cc23)CC1 [Compound 352, N-[8-(4-cyanophenoxy)-2-methyl-imidazo[1,2-a]pyridin-6-yl]-4-[4-(ethylamino)-1-piperidyl]-2-methylindazole-7-carboxamide] | > 10000 nM | < 100 nM | – | –
> 10000 nM | > 10000 nM | > 10000 nM | > 10000 nM | > 10000 nM | – | – | – | – | COc1cc2nn(C)cc2cc1NC(=O)c1ccc(N2CCC(N3CCNCC3)C2)c2cn(C)nc12 (stereo not drawn) [Compound 539] | 1000 to 10000 nM | > 10000 nM | – | –
1000 to 10000 nM | 100 to 1000 nM | 1000 to 10000 nM | 100 to 1000 nM | 1000 to 10000 nM | – | – | – | – | Cc1cn2cc(NC(=O)c3c(F)cc(N4CCC(N(C)C)CC4)c4cn(C)nc34)nc2c(C)n1 [Compound 356, 4-[4-(dimethylamino)-1-piperidyl]-N-(6,8-dimethylimidazo[1,2-a]pyrazin-2-yl)-6-fluoro-2-methyl-indazole-7-carboxamide] | 1000 to 10000 nM | < 100 nM | – | –
1000 to 10000 nM | < 100 nM | 1000 to 10000 nM | < 100 nM | 100 to 1000 nM | – | – | – | – | C[C@H]1CN(c2ccc(C(=O)Nc3cc(F)c4nn(C)cc4c3)c3nn(C)cc23)C[C@H](C)N1 [Compound 584, 4-[(3S, 5S)-3,5-dimethylpiperazin-1-yl]-N-(7-fluoro-2-methyl-indazol-5-yl)-2-methyl-indazole-7-carboxamide] | 1000 to 10000 nM | < 100 nM | – | –
